Key:
[1] = system: P493-6 (myc "on") cells; assay: Cell Proliferation Assay; assay type: cell-based; conditions: P493-6, 72 h, read-out: Cell prolif P493 72 h IC50, P493 cells, 72 h
In short: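 Read-out: either Cell Titer Glo or Guava Viacount flow analysis after 72 h compound treatment of myc-on P493-6 cells (10,000/well, RPMI with 10% FBS) at 37 °C. DMSO held at 0.5% final.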

[2] = system: HCT116 cells; assay: Colon Carcinoma Xenograft Efficacy Study; assay type: in vivo, mice; conditions: intraperitoneal, twice daily, vs vehicle (FIG. 11)
Protocol: Female scid/bg mice, approximately 6 weeks of age, were implanted subcutaneously on the right flank with 5×10^6 HCT116 cells per mouse in a volume of 100 uL of sterile PBS. When tumors reached a volume of 50-100 mm^3, mice were randomized to groups of n=10 to receive either vehicle or test compound delivered twice daily by intraperitoneal injection. Tumors were measured three times per week using Vernier calipers and tumor volume calculated using the formula: Volume=(Length×Width^2/2), where length and width are the longest perpendicular sides of the tumor. Dosing continued twice daily until control tumors reached a size of 2000 mm^3 Statistical comparisons were made using a 2-way ANOVA with Bonferroni post-test.

Which results are given for `O=C(CCN1CCOCC1)OCC(C(=O)Nc1nnc(CCCCc2nnc(NC(=O)C(COC(=O)CCN3CCOCC3)c3ccccc3)s2)s1)c1ccccc1` (centres unmarked) [Compound 188, {[5,5′-(butane-1,4-diyl)-bis(1,3,4-thiadiazole-5,2-diyl)]-bis(azanediyl)}-bis(3-oxo-2-phenylpropane-3,1-diyl)-bis(3-morpholinopropanoate)]?
IC50 [1]: 460 nM; tumor size [2]: reduced tumor size

— patent publication US20150004134A1, “TREATMENT OF CANCER WITH HETEROCYCLIC INHIBITORS OF GLUTAMINASE” (Calithera Biosciences, Inc., priority 2012, published 2015)
